Reference: patent US20190119282A1, “IMIDAZOPYRIDAZINES USEFUL AS INHIBITORS OF THE PAR-2 SIGNALING PATHWAY” (Vertex Pharmaceuticals Incorporated, priority 2013, published 2019)

Assays:
[1] = biological target: T1, PAR2 (HT-29 cells, SLIGKV activation) (Homo sapiens, UniProt P55085); test: Ca FLIPR TETRA assay, ANTAGONIST mode, stimulation with 8 μM SLIGKV; format: cell-based; details: for IC50: HT-29 cells, stimulation with 8 μM SLIGKV
T1 construct: host or cells: HT-29 cells
T1 sequence (P55085 26-397): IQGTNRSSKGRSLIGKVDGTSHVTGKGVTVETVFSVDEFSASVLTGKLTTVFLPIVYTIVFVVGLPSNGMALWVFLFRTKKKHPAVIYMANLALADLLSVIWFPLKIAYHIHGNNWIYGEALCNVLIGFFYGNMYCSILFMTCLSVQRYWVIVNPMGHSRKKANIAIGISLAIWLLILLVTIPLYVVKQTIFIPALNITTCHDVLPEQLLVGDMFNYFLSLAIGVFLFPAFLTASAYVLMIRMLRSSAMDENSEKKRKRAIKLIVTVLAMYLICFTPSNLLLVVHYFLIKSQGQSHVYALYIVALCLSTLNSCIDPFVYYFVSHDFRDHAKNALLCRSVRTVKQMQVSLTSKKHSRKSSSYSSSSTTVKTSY
How it was run: (§1)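 Antagonist-mode FLIPR Tetra Ca2+ readout: after 30 min r.t. compound pre-incubation, HT-29 cells are challenged with trypsin (3.1 U/mL final), SLIGKV (8 μM), thrombin (1 U/mL) or UTP (0.6 μM). Cells were plated overnight in 1% FBS medium and dye-loaded with Calcium 5; an initial read checks compound agonism.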

[2] = biological target: T2, PAR2 (HT-29 cells, trypsin activation) (Homo sapiens, UniProt P55085); test: Ca FLIPR TETRA assay, ANTAGONIST mode, stimulation with 3.1 U/mL trypsin; format: cell-based; details: HT-29 cells, stimulation with 3.1 U/mL trypsin
T2 construct: host or cells: HT-29 cells
T2 sequence (P55085 26-397): T1 sequence (P55085 26-397)
How it was run: as §1

[3] = system: Thrombin-stimulated Ca2+ response in HT-29 cells; test: Ca FLIPR TETRA assay, ANTAGONIST mode, stimulation with 1 U/mL Thrombin; format: cell-based, human; details: Homo sapiens; HT-29 cells, stimulation with 1 U/mL Thrombin
How it was run: as §1

[4] = system: UTP-stimulated Ca2+ response in HT-29 cells; test: Ca FLIPR TETRA assay, ANTAGONIST mode, stimulation with 0.6 μM UTP; format: cell-based, human; details: Homo sapiens; HT-29 cells, stimulation with 0.6 μM UTP
How it was run: as §1

Compound | IC50 [1] | IC50 [2] | IC50 [3] | IC50 [4] | SLIGKV % @ concentration ([1]; @ 1.9 (μM)) | SLIGKV % @ concentration ([1]; @ 5.6 (μM)) | SLIGKV % @ concentration ([1]; @ 0.069 (μM))
CC(C)c1cc(C2=CCOCC2)nn2cc(C(=O)N3CCN(C(=O)C4(O)CCC4)CC3(C)C)nc12 [Compound I-44, [6-(3,6-dihydro-2H-pyran-4-yl)-8-isopropyl-imidazo[1,2-b]pyridazin-2-yl]-[4-(1-hydroxycyclobutanecarbonyl)-2,2-dimethyl-piperazin-1-yl]methanone] | 5 µM | 9.5 µM | > 50 µM | > 50 µM | – | – | –
CC(C)c1cc(C2CCOCC2)nn2cc(C(=O)N3CCN(C(=O)C4(O)CCC4)CC3(C)C)nc12 [Compound I-45, [4-(1-hydroxycyclobutanecarbonyl)-2,2-dimethyl-piperazin-1-yl]-(8-isopropyl-6-tetrahydropyran-4-yl-imidazo[1,2-b]pyridazin-2-yl)methanone] | 20 µM | > 50 µM | > 50 µM | > 50 µM | – | – | –
C[C@H]1CN(C(=O)c2cn3nc(-c4ccc(F)cc4)cc(C(F)(F)F)c3n2)CCN1C(=O)OCc1ccccc1 [Compound I-46] | 0.04 µM | 0.095 µM | > 5 µM | > 5 µM | – | – | –
O=C(c1cn2nc(-c3ccc(F)cc3)cc(C(F)(F)F)c2n1)N1CCCCC1CO (centres unmarked) [Compound I-47] | 3.1 µM | 7.5 µM | 16 µM | 32 µM | – | – | –
COC(=O)[C@@H]1C[C@@H](C)CN(C(=O)c2cn3nc(-c4ccc(F)cc4)cc(C(F)(F)F)c3n2)C1 [Compound I-49] | 0.53 µM | 1.5 µM | 5.2 µM | 6 µM | – | – | –
O=C(c1cn2nc(-c3ccc(F)cc3)cc(C(F)(F)F)c2n1)N1CCN(C(=O)N2CCCCC2)CC1 [Compound I-50] | – | 27 µM | > 50 µM | > 50 µM | 44% @ 1.9 | – | –
CC(C)(C)C[C@@H](O)C(=O)N1CCN(C(=O)c2cn3nc(-c4ccc(F)cc4)cc(C(F)(F)F)c3n2)CC1 [Compound I-52] | 0.14 µM | 0.35 µM | 47 µM | 16 µM | – | – | –
O=C(OCc1ccccc1)N1CCN(C(=O)c2cn3nc(-c4ccc(F)cc4)cc(C(F)(F)F)c3n2)CC1 [Compound I-53] | – | 21 µM | > 50 µM | > 50 µM | – | 55% @ 5.6 | –
CC(C(=O)NC1CC1)N1CCN(C(=O)c2cn3nc(-c4ccc(F)cc4)cc(C(F)(F)F)c3n2)CC1 (centres unmarked) [Compound I-55] | 0.95 µM | 3.1 µM | > 50 µM | > 50 µM | – | – | –
O=C(c1cn2nc(-c3ccc(F)cc3)cc(C(F)(F)F)c2n1)N1CCN(CCn2ccnc2)CC1 [Compound I-56] | 23 µM | > 50 µM | > 50 µM | > 50 µM | – | – | –
CCS(=O)(=O)N1CCN(C(=O)c2cn3nc(-c4ccc(F)cc4)cc(C(F)(F)F)c3n2)CC1 [Compound I-57] | 0.59 µM | 48 µM | > 50 µM | > 50 µM | – | – | –
CCC(=O)N1CCN(C(=O)c2cn3nc(-c4ccc(F)cc4)cc(C(F)(F)F)c3n2)CC1 [Compound I-59] | 22 µM | 2 µM | > 50 µM | > 50 µM | – | – | –
Cc1cc(-c2ccc(F)cc2)nn2cc(C(=O)N3CCC(C#N)CC3)nc12 [Compound I-60] | 7.9 µM | 14 µM | 32 µM | 40 µM | – | – | –
Cc1cc(-c2ccc(F)cc2)nn2cc(C(=O)N3CCCC4(COC4)C3)nc12 [Compound I-61] | 13 µM | 19 µM | 26 µM | 38 µM | – | – | –
CCOC1CCN(C(=O)c2cn3nc(-c4ccc(F)cc4)cc(C)c3n2)CC1 [Compound I-62] | 7.4 µM | 29 µM | 38 µM | 44 µM | – | – | –
CCNC(=O)OC1CCN(C(=O)c2cn3nc(-c4ccc(F)cc4)cc(C)c3n2)CC1 [Compound I-63] | 1 µM | 4.1 µM | 35 µM | 37 µM | – | – | –
COC(=O)[C@@H]1CCN(C(=O)c2cn3nc(-c4ccc(F)cc4)cc(C(F)(F)F)c3n2)C[C@@H]1C [Compound I-64] | 0.11 µM | 0.22 µM | 5.7 µM | 42 µM | – | – | –
O=C1CCN(C(=O)c2cn3nc(-c4ccc(F)cc4)cc(C(F)(F)F)c3n2)CC1 [Compound I-66] | 5 µM | 12 µM | 48 µM | > 50 µM | – | – | –
O=C(c1cn2nc(-c3ccc(F)cc3)cc(C(F)(F)F)c2n1)N1CCCCC1c1ccncc1 (centres unmarked) [Compound I-67] | 3.1 µM | 3.6 µM | 6.7 µM | 8.1 µM | – | – | –

Compound | IC50 [1] | IC50 [2] | IC50 [3] | IC50 [4] | SLIGKV % @ concentration ([1]; @ 1.9 (μM)) | SLIGKV % @ concentration ([1]; @ 5.6 (μM)) | SLIGKV % @ concentration ([1]; @ 0.069 (μM))
CC1CN(C(=O)c2cn3nc(-c4ccc(F)cc4)cc(C(F)(F)F)c3n2)CCC1O (centres unmarked) [Compound I-68] | 5.9 µM | 13 µM | 19 µM | 29 µM | – | – | –
CC(C)(O)C1CCCN(C(=O)c2cn3nc(-c4ccc(F)cc4)cc(C(F)(F)F)c3n2)C1 (centres unmarked) [Compound I-69] | 6 µM | 9.3 µM | 8.5 µM | 36 µM | – | – | –
O=C(c1cn2nc(-c3ccc(F)cc3)cc(C(F)(F)F)c2n1)N1CC[C@@]2(O)CCCC[C@H]2C1 [Compound I-70] | 3.7 µM | 5.7 µM | 12 µM | 17 µM | – | – | –
O=C(c1cn2nc(-c3ccc(F)cc3)cc(C(F)(F)F)c2n1)N1CCCCC1c1ccccc1 (centres unmarked) [Compound I-71] | 0.95 µM | 0.68 µM | 43 µM | > 50 µM | – | – | –
Cc1noc(C2CCCCN2C(=O)c2cn3nc(-c4ccc(F)cc4)cc(C(F)(F)F)c3n2)n1 (centres unmarked) [Compound I-72] | 1.4 µM | 1.5 µM | 50 µM | > 50 µM | – | – | –
CCOC(=O)[C@@H]1CCCN(C(=O)c2cn3nc(-c4ccc(F)cc4)cc(C(F)(F)F)c3n2)[C@@H]1C [Compound I-75] | 1.1 µM | 1.2 µM | 1.6 µM | 2.2 µM | – | – | –
CCOC(=O)[C@H]1CCCN(C(=O)c2cn3nc(-c4ccc(F)cc4)cc(C(F)(F)F)c3n2)[C@@H]1C [Compound I-76] | 3.3 µM | 4.8 µM | 5.5 µM | 4.4 µM | – | – | –
O=C(c1cn2nc(-c3ccc(F)cc3)cc(C(F)(F)F)c2n1)N1CCCCC1c1ccn[nH]1 (centres unmarked) [Compound I-78] | 0.51 µM | 1.6 µM | 4.1 µM | 4.5 µM | – | – | –
O=C(c1cn2nc(-c3ccc(F)cc3)cc(C(F)(F)F)c2n1)N1CCCCC1c1ccccn1 (centres unmarked) [Compound I-79] | 1.3 µM | 1.7 µM | 2 µM | 3 µM | – | – | –
O=C(c1cn2nc(-c3ccc(F)cc3)cc(C(F)(F)F)c2n1)N1CCC(n2cc(-c3ccccc3)[nH]c2=O)CC1 [Compound I-80] | 0.054 µM | 0.082 µM | > 5 µM | > 5 µM | – | – | –
NC(=O)C1CCCCN1C(=O)c1cn2nc(-c3ccc(F)cc3)cc(C(F)(F)F)c2n1 (centres unmarked) [Compound I-81] | 6.7 µM | 12 µM | 9.2 µM | 17 µM | – | – | –
C[C@H]1CN(C(=O)c2cn3nc(-c4ccc(F)cc4)cc(C(F)(F)F)c3n2)CCN1C(=O)OCC(C)(C)C [Compound I-82] | 0.022 µM | 0.1 µM | 14 µM | 22 µM | – | – | –
C[C@H]1CN(C(=O)c2cn3nc(-c4ccc(F)cc4)cc(C(F)(F)F)c3n2)CCN1C(=O)Oc1ccccc1 [Compound I-83] | – | > 50 µM | > 50 µM | > 50 µM | – | – | 46% @ 0.069
CC(C)(C)OC(=O)N1CCCN(C(=O)c2cn3nc(-c4ccc(F)cc4)cc(C(F)(F)F)c3n2)CC1 [Compound I-84] | 0.79 µM | 1.8 µM | 6.4 µM | 5.1 µM | – | – | –
C[C@H]1CN(C(=O)c2cn3nc(-c4ccc(F)cc4)cc(C(F)(F)F)c3n2)CCN1C(=O)[C@@H]1CCCO1 [Compound I-85] | 1.6 µM | 10 µM | 49 µM | 40 µM | – | – | –
C[C@H]1CN(C(=O)c2cn3nc(-c4ccc(F)cc4)cc(C(F)(F)F)c3n2)CCN1C(=O)C1CCCCC1 [Compound I-86] | 0.078 µM | 0.6 µM | 35 µM | 37 µM | – | – | –
C[C@H]1CN(C(=O)c2cn3nc(-c4ccc(F)cc4)cc(C(F)(F)F)c3n2)CCN1C(=O)c1ccccc1 [Compound I-89] | 0.27 µM | 0.9 µM | > 50 µM | > 50 µM | – | – | –
C[C@H]1CN(C(=O)c2cn3nc(-c4ccc(F)cc4)cc(C(F)(F)F)c3n2)CCN1C(=O)Cc1ccccc1 [Compound I-90] | 0.015 µM | 0.044 µM | > 5 µM | > 5 µM | – | – | –
CC(C)C(O)C(=O)N1CCN(C(=O)c2cn3nc(-c4ccc(F)cc4)cc(C(F)(F)F)c3n2)C[C@@H]1C (some centres unmarked) [Compound I-91] | 0.069 µM | 1.5 µM | 26 µM | 20 µM | – | – | –
